The text below walks through data of patent publication US8933228B2, “Respiratory formulations and compounds for use therein” (Respivert, Ltd., priority 2010, dated 2015).

In general, IC50 refers to the point on the concentration scale where inhibition reaches its midpoint. In general, inhibition refers to the percentage by which the read-out fell short of the control.

One series deals with HCK enzyme (Homo sapiens (Human), UniProt P08631). In words: HCK enzyme inhibition assay (FRET, Z'-LYTE). It counts as biochemical. Conditions: read-out: Enzyme Profile: IC50 Values HCK.
Series [1] deals with ICAM-1 expression in BEAS2B cells. In words: Poly I:C-induced ICAM-1 induction in BEAS2B cells. The format is cell-based. The note with it: Homo sapiens, BEAS-2B; BEAS2B cells, poly I:C 1 μg/mL, 18 hr; read-out: BEAS2B (polyIC) ICAM1 IC50. As to the method:
Poly I:C (1 μg/mL) (Invivogene Ltd., San Diego, Calif.) was transfected into BEAS2B cells (human bronchial epithelial cells, ATCC) with Oligofectamine (Invitrogen, Carlsbad, Calif.). Cells were pre-incubated with final concentrations of test compounds for 2 hr and the level of ICAM1 expression on the cell surface was determined by cell-based ELISA. […] The cells were washed with PBS-Tween and incubated with the secondary antibody (HRP-conjugated anti-rabbit IgG, Dako Ltd., Glostrup, Denmark).

Series [2] has as its system Differentiated U937 cells. Description: MTT assay: cell viability. The format is cell-based, human. Conditions: 1 μg/ml; for d-U937 MTT Assay 4 h: 5% FCS; for d-U937 MTT Assay 24 h: 10% FCS. As to the method: Differentiated U937 cells were pre-incubated with each test compound under two protocols: the first for 4 hr in 5% FCS and the second in 10% FCS for 24 h. The supernatant was replaced with 200 μL of new media and 10 μL of MTT stock solution (5 mg/mL) was added to each well. After incubation for 1 hr the media were removed, 200 μL of DMSO was added to each well and the plates were shaken lightly for 1 hr prior to reading the absorbance at 550 nm. The percentage loss of cell viability was calculated for each well relative to vehicle (0.5% DMSO) treatment. Consequently an apparent increase in cell viability for drug treatment relative to vehicle is tabulated as a negative percentage.
On the technique in general: Tetrazolium assays rely on reduction of a dye to a coloured formazan, in cell work by metabolically active cells.

The subject of series [3] is IL-8 release in d-U937 cells. Description: LPS-induced IL-8 release in d-U937 cells. The format is cell-based. Conditions: Homo sapiens, dU937; d-U937 cells, LPS 0.1 μg/mL, 4 hr; read-out: d-U937 (LPS) IL-8 IC50. The procedure:
(§1) U937 cells, a human monocytic cell line, were differentiated to macrophage-type cells by incubation with phorbol myristate acetate (PMA; 100 ng/mL) for 48 to 72 hr, whereupon the cells become adherent. […] Coli: O111:B4, Sigma) for 4 hr. The supernatant was collected for determination of TNFα and IL-8 concentrations by sandwich ELISA (Duo-set, R&D systems). […] The relative 50% effective concentration (REC50) was determined from the resultant concentration-response curve. The inhibition of IL-8 production was calculated at each concentration of test compound by comparison with vehicle control.

For a further series, the target named is cSrc enzyme (Homo sapiens (Human), UniProt P12931). Description: c-SRC enzyme inhibition assay (FRET, Z'-LYTE). The format is biochemical. Conditions: read-out: Enzyme Profile: IC50 Values cSrc.
Series [4] relates to TNFα release in THP-1 cells. In words: LPS-induced TNFα release in THP-1 cells. It counts as cell-based. Conditions: Homo sapiens; THP-1 cells, LPS 3 μg/mL, 4 hr; read-out: THP1 (LPS) TNFα IC50. As to the method: The inhibition of TNFα production was calculated at each concentration by comparison with vehicle control.
Series [5] concerns TNFα release in d-U937 cells. Description: LPS-induced TNFα release in d-U937 cells. The format is cell-based. The note with it: Homo sapiens, dU937, LPS 0.1 μg/mL, 4 hr, relative to 10 μg/mL BIRB796, read-out: d-U937 (LPS) TNFα REC50. As to the method: as §1
For another series, the target named is p38 MAPK γ (MAPK12) (Homo sapiens (Human), UniProt P53778). Description: Enzyme inhibition assay (FRET, Z-LYTE), p38 MAPK gamma. It counts as biochemical. The note with it: read-out: Enzyme Profile: IC50 Values p38γ. The procedure:
(§2) The enzyme inhibitory activity of test compounds was determined by fluorescence resonance energy transfer (FRET) using synthetic peptides labelled with both donor and acceptor fluorophores (Z-LYTE, Invitrogen). Recombinant, phosphorylated p38 MAPK γ (MAPK12:Millipore) was diluted in HEPES buffer, mixed with compound at the desired final concentrations and incubated for 2 hr at RT. The FRET peptide (2 μM) and ATP (100 μM) were next added to the enzyme/compound mixture and incubated for 1 hr. Development reagent (protease) was added for 1 hr prior to detection in a fluorescence microplate reader. The site-specific protease only cleaves non-phosphorylated peptide and eliminates the FRET signal. Phosphorylation levels of each reaction were calculated using the ratio of coumarin emission (donor) over fluorescein emission (acceptor) with high ratios indicating high phosphorylation levels and low ratios indicating low phosphorylation levels.

The next series deals with p38 MAPK alpha (MAPK14) (Homo sapiens (Human), UniProt Q16539). In words: Enzyme inhibition assay (FRET, Z-LYTE), p38 MAPK alpha via MAPKAP-K2 activation. It counts as biochemical. Conditions: read-out: Enzyme Profile: IC50 Values p38α. The procedure: as §2
For p38 MAPK alpha (MAPK14: Invitrogen), enzyme activity was evaluated indirectly by determining activation/phosphorylation of the down-stream molecule, MAPKAP-K2. The p38 MAPK a protein was mixed with compound for 2 hr at RT. […] Development reagent was then added and the mixture incubated for 1 hr before detection by fluorescence completed the assay protocol.
The enzyme inhibitory activity of compound was determined by fluorescence resonance energy transfer (FRET) using synthetic peptides labelled with both donor and acceptor fluorophores (Z′-LYTE, Invitrogen).

A further series concerns HRV16. Description: Rhinovirus-titre assay. The format is cell-based, human rhinovirus. The note with it: Human rhinovirus sp., HRV16; cell not marked b; test compounds 0.04 μg/mL per method (footnote b, 0.2 μg/mL); read-out: HRV titre (inhibitory %): % inhibition observed vs. HRV16 infection control. The procedure: MRC5 cells (human lung fibroblast, ATCC) were infected with 1 MOI (multiplicity of infection of 1.0) of HRV16 and incubated for 1 hr at 33° C. with gentle shaking to stimulate adsorption. The cells were then washed with PBS, fresh media was added and the cells were incubated for a further 96 hr. The supernatant was collected and 10-fold serial dilutions of virus containing supernatant were prepared. All titrations were performed by infecting confluent Hela cell monolayers with serially diluted supernatant (10^−1-10^−5) and assessing the cytopathic effect by visual inspection 4 days after infection. The amount of virus required to infect 50% of Hela cells was calculated in each treatment as TCID50. Test compounds (0.04 μg/mL) were added 2 hr before HRV infection and 1 hr after infection when non-infected HRV was washed out. The anti-HRV activity of each test compound was determined as the difference of the log TCID50 of HRV16 in the presence of the compound with the log TCID50 of HRV16 in the absence of compound. […]

Regarding `COc1ccc(-n2nc(C(C)(C)C)cc2NC(=O)Nc2ccc(Oc3ccnc4[nH]c(=O)n(C)c34)c(Cl)c2Cl)cc1` [Example 13, 1-(3-(tert-Butyl)-1-(4-methoxyphenyl)-1H-pyrazol-5-yl)-3-(2,3-dichloro-4-((1-methyl-2-oxo-2,3-dihydro-1H-imidazo[4,5-b]pyridin-7-yl)oxy)phenyl)urea], the IC50 on HCK enzyme worked out at 4 nM; in series [1], 6.2 nM; in series [3], 4.6 nM; at cSrc enzyme, 5 nM; in series [4] it was 0.6 nM; at p38 MAPK γ (MAPK12) it was 23 nM. Moreover, the IC50 on p38 MAPK alpha (MAPK14) is 7 nM. The “d-U937 MTT Assay 4 h” value in [2] was “− (− and + indicate the result is below and above the no significant effect threshold, respectively (<30% inhibition at a concentration of 1 μg/ml))”. Also, the “d-U937 MTT Assay 24 h” value in series [2] was “+ (− and + indicate the result is below and above the no significant effect threshold, respectively (<30% inhibition at a concentration of 1 μg/ml))”. Also, in series [5], the EC50 was 0.6 nM.

For `CCn1c(=O)[nH]c2nccc(Oc3ccc(NC(=O)Nc4cc(C(C)(C)C)nn4-c4ccc(OC)cc4)c4ccccc34)c21` [Example 11], the IC50 on HCK enzyme came to 5 nM; in series [1], 3.6 nM; in [3], 1.6 nM; at cSrc enzyme, 9 nM; in series [4], 4 nM; at p38 MAPK γ (MAPK12), 348 nM. Also, the IC50 on p38 MAPK alpha (MAPK14) was determined as 2 nM. Moreover, the “d-U937 MTT Assay 4 h” value in series [2] was “− (− and + indicate the result is below and above the no significant effect threshold, respectively (<30% inhibition at a concentration of 1 μg/ml))”. Moreover, the “d-U937 MTT Assay 24 h” value in series [2] is “− (− and + indicate the result is below and above the no significant effect threshold, respectively (<30% inhibition at a concentration of 1 μg/ml))”. In the series with HRV16, the inhibition at 0.04 µg/mL worked out at 60%. In addition, the EC50 in series [5] is 0.7 nM.

For `COc1ccc(-n2nc(C(C)(C)C)cc2NC(=O)Nc2ccc(Oc3ncnc4[nH]c(=O)cnc34)c3ccccc23)cc1` [Example 22], the IC50 was 458 nM on HCK enzyme; more than 173 nM in [1]; more than 1730 nM in [3]; 406 nM at cSrc enzyme; more than 1730 nM in series [4]; 2620 nM on p38 MAPK γ (MAPK12). The IC50 at p38 MAPK alpha (MAPK14) is 17 nM. Also, the “d-U937 MTT Assay 4 h” value in series [2] was “− (− and + indicate the result is below and above the no significant effect threshold, respectively (<30% inhibition at a concentration of 1 μg/ml))”. Further, the “d-U937 MTT Assay 24 h” value in series [2] is “− (− and + indicate the result is below and above the no significant effect threshold, respectively (<30% inhibition at a concentration of 1 μg/ml))”. The inhibition at 0.04 µg/mL with HRV16 was found to be 8%. Also, the EC50 in [5] was more than 1730 nM.

On to `COc1ccc(-n2nc(C(C)(C)C)cc2NC(=O)Nc2ccc(Oc3ccnc4[nH]c(=O)cnc34)c3ccccc23)cc1` [Example 25, 1-(3-(tert-butyl)-1-(4-methoxyphenyl)-1H-pyrazol-5-yl)-3-(4-((3-oxo-3,4-dihydropyrido[2,3-b]pyrazin-8-yl)oxy)naphthalen-1-yl)urea], for which the IC50 on HCK enzyme was 5 nM; in [1], 8.3 nM; in series [3] it was 8.1 nM; at cSrc enzyme, 12 nM; in [4], 1.6 nM; on p38 MAPK γ (MAPK12), 50 nM. Moreover, the IC50 at p38 MAPK alpha (MAPK14) is 4 nM. For the same compound, the “d-U937 MTT Assay 4 h” value in [2] is “− (− and + indicate the result is below and above the no significant effect threshold, respectively (<30% inhibition at a concentration of 1 μg/ml))”. The “d-U937 MTT Assay 24 h” value in [2] is “− (− and + indicate the result is below and above the no significant effect threshold, respectively (<30% inhibition at a concentration of 1 μg/ml))”. Moreover, in the series with HRV16, the inhibition at 0.04 µg/mL is 36%. Besides, the EC50 in series [5] came out at 1.8 nM.

In the case of `CNS(=O)(=O)Cc1ccc(-n2nc(C(C)(C)C)cc2NC(=O)Nc2ccc(Oc3ccnc4[nH]c(=O)cnc34)c3ccccc23)cc1` [Example 26, 1-(4-(3-(tert-butyl)-5-(3-(4-((3-oxo-3,4-dihydropyrido[2,3-b]pyrazin-8-yl)oxy)naphthalen-1-yl)ureido)-1H-pyrazol-1-yl)phenyl)-N-methylmethanesulfonamide], the IC50 came out at 3 nM at HCK enzyme; 207 nM in series [1]; 1.6 nM in [3]; 13 nM on cSrc enzyme; 75 nM in series [4]; 29 nM on p38 MAPK γ (MAPK12). Besides, the IC50 on p38 MAPK alpha (MAPK14) was determined as 7 nM. The “d-U937 MTT Assay 4 h” value in series [2] was “− (− and + indicate the result is below and above the no significant effect threshold, respectively (<30% inhibition at a concentration of 1 μg/ml))”. The “d-U937 MTT Assay 24 h” value in series [2] was “− (− and + indicate the result is below and above the no significant effect threshold, respectively (<30% inhibition at a concentration of 1 μg/ml))”. In addition, the EC50 in series [5] turned out to be 1.9 nM.

With `COc1ccc(-n2nc(C(C)(C)C)cc2NC(=O)Nc2ccc(OCc3ccnc4[nH]c(=O)cnc34)c3ccccc23)cc1` [Example 23], the IC50 on HCK enzyme was found to be 22 nM; in series [1], 23 nM; in series [3], 90 nM; on cSrc enzyme it was 35 nM; on p38 MAPK γ (MAPK12), 193 nM; on p38 MAPK alpha (MAPK14), 12 nM. Besides, in series [2], the “d-U937 MTT Assay 4 h” value is “− (− and + indicate the result is below and above the no significant effect threshold, respectively (<30% inhibition at a concentration of 1 μg/ml))”. In addition, in series [2], the “d-U937 MTT Assay 24 h” value was “− (− and + indicate the result is below and above the no significant effect threshold, respectively (<30% inhibition at a concentration of 1 μg/ml))”. Moreover, the EC50 in series [5] stood at 30 nM.
